System: SEM cells
Assay: cell viability relative to DMSO control; higher = less cytotoxic
Details: 48 h
Summary of the method: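 NOMO1 or SEM (500 cells/well) or P12-Ichikawa (1000 cells/well) leukemia cells were adapted for at least four passages in each medium. They were seeded in 1536-well plates (5 μl) and pin-dosed with library compounds in DMSO over an 11-point threefold series, 47 μM to 0.79 nM. CellTiter-Glo One luminescence was read after 48 h at 37°C. Viability is the per-plate percentage relative to DMSO wells, with cell-free wells as background.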

[1] = HPLM + 10% dialyzed FBS, 0.000781 µM
[2] = HPLM + 10% dialyzed FBS, 0.00234 µM
[3] = HPLM + 10% dialyzed FBS, 0.00702 µM
[4] = HPLM + 10% dialyzed FBS, 0.0211 µM
[5] = HPLM + 10% dialyzed FBS, 0.0632 µM
[6] = HPLM + 10% dialyzed FBS, 0.19 µM
[7] = HPLM + 10% dialyzed FBS, 0.569 µM
[8] = HPLM + 10% dialyzed FBS, 1.71 µM
[9] = HPLM + 10% dialyzed FBS, 5.12 µM
[10] = HPLM + 10% dialyzed FBS, 15.4 µM
[11] = HPLM + 10% dialyzed FBS, 46.1 µM
[12] = RPMI 5 mM glucose + 10% dialyzed FBS, 0.000781 µM
[13] = RPMI 5 mM glucose + 10% dialyzed FBS, 0.00234 µM
[14] = RPMI 5 mM glucose + 10% dialyzed FBS, 0.00702 µM
[15] = RPMI 5 mM glucose + 10% dialyzed FBS, 0.0211 µM
[16] = RPMI 5 mM glucose + 10% dialyzed FBS, 0.0632 µM
[17] = RPMI 5 mM glucose + 10% dialyzed FBS, 0.19 µM
[18] = RPMI 5 mM glucose + 10% dialyzed FBS, 0.569 µM
[19] = RPMI 5 mM glucose + 10% dialyzed FBS, 1.71 µM
[20] = RPMI 5 mM glucose + 10% dialyzed FBS, 5.12 µM
[21] = RPMI 5 mM glucose + 10% dialyzed FBS, 15.4 µM
[22] = RPMI 5 mM glucose + 10% dialyzed FBS, 46.1 µM
[23] = RPMI 5 mM glucose + 10% FBS, 0.000781 µM
[24] = RPMI 5 mM glucose + 10% FBS, 0.00234 µM
[25] = RPMI 5 mM glucose + 10% FBS, 0.00702 µM
[26] = RPMI 5 mM glucose + 10% FBS, 0.0211 µM
[27] = RPMI 5 mM glucose + 10% FBS, 0.0632 µM
[28] = RPMI 5 mM glucose + 10% FBS, 0.19 µM
[29] = RPMI 5 mM glucose + 10% FBS, 0.569 µM
[30] = RPMI 5 mM glucose + 10% FBS, 1.71 µM
[31] = RPMI 5 mM glucose + 10% FBS, 5.12 µM
[32] = RPMI 5 mM glucose + 10% FBS, 15.4 µM
[33] = RPMI 5 mM glucose + 10% FBS, 46.1 µM

SMILES | cell viability [1] [%] | cell viability [2] [%] | cell viability [3] [%] | cell viability [4] [%] | cell viability [5] [%] | cell viability [6] [%] | cell viability [7] [%] | cell viability [8] [%] | cell viability [9] [%] | cell viability [10] [%] | cell viability [11] [%] | cell viability [12] [%] | cell viability [13] [%] | cell viability [14] [%] | cell viability [15] [%] | cell viability [16] [%] | cell viability [17] [%] | cell viability [18] [%] | cell viability [19] [%] | cell viability [20] [%] | cell viability [21] [%] | cell viability [22] [%] | cell viability [23] [%] | cell viability [24] [%] | cell viability [25] [%] | cell viability [26] [%] | cell viability [27] [%] | cell viability [28] [%] | cell viability [29] [%] | cell viability [30] [%] | cell viability [31] [%] | cell viability [32] [%] | cell viability [33] [%]
CC(C)c1ccccc1Cc1cc(C(=O)Nc2ccc([S+](=O)([O-])c3ccccc3C(C)(C)C)cc2)c(O)c(O)c1O | 104 | 127 | 116 | 106 | 113 | 101 | 109 | 115 | 68.6 | 94.2 | 94.6 | 129 | 118 | 120 | 105 | 120 | 112 | 138 | 123 | 32.7 | 69.8 | 92.1 |  |  |  |  |  |  |  |  |  |  | 
CC(C)NCC(O)c1ccc(NS(C)(=O)=O)cc1 (stereo not given) | 110 | 110 | 93 | 106 | 111 | 124 | 108 | 105 | 111 | 116 | 108 | 107 | 99.1 | 97.4 | 104 | 111 | 105 | 111 | 106 | 106 | 109 | 105 | 109 | 104 | 117 | 106 | 109 | 101 | 96.2 | 87.1 | 92.7 | 97.2 | 107
CN[C@@H]1C[C@H]2O[C@@](C)([C@@H]1OC)n1c3ccccc3c3c4c(c5c6ccccc6n2c5c31)C(=O)N[C@H]4O | 72.1 | 79.1 | 87.6 | 77.7 | 64 | 55.4 | 36.7 | 16.5 | 6.79 | 3.78 | 3.23 | 82.8 | 78 | 76.6 | 90.4 | 67.3 | 69.8 | 45 | 5.6 | 5.83 | 3.57 | 2.57 | 81.2 | 87.9 | 83.8 | 84.1 | 57.5 | 69.5 | 35.4 | 5.65 | 4.44 | 4.12 | 2.58
O=C(CCc1ccc(O)cc1)c1c(O)cc(O)cc1O[C@@H]1O[C@H](CO)[C@@H](O)[C@H](O)[C@H]1O | 78.3 | 99.9 | 107 | 107 | 100 | 85.8 | 88.2 | 102 | 104 | 93.1 | 81.9 | 61.4 | 102 | 89.6 | 104 | 86.9 | 89.1 | 90.5 | 86.7 | 89.5 | 77.4 | 73.1 | 80.9 | 93.9 | 98.4 | 97.6 | 79.6 | 94.6 | 89.4 | 78.6 | 93.7 | 92.2 | 83.4
NC(=O)Nc1cc(-c2ccc(CN3CCOCC3)cc2)sc1C(N)=O | 103 | 113 | 106 | 108 | 103 | 32.9 | 33.3 | 22.2 | 12.9 | 11.5 | 8.44 | 104 | 110 | 109 | 108 | 91.2 | 22.9 | 21.6 | 14.5 | 7.42 | 7.32 | 5.7 | 118 | 120 | 133 | 116 | 111 | 20.2 | 19.9 | 17.1 | 10.8 | 6.3 | 6.6
Nc1nc(OCc2ccccc2)c2nc[nH]c2n1 | 99.9 | 107 | 114 | 112 | 112 | 124 | 114 | 115 | 115 | 105 | 127 | 90.2 | 102 | 109 | 103 | 104 | 112 | 98.6 | 86.6 | 94.5 | 76.1 | 103 | 82 | 101 | 84.5 | 92.3 | 103 | 97.5 | 89.4 | 78.4 | 93.8 | 76.7 | 88.9
COc1cccc2c1C(=O)c1c(O)c3c(c(O)c1C2=O)C[C@@](O)(C(C)=O)C[C@@H]3O[C@H]1C[C@H](N)[C@H](O)[C@H](C)O1 | 74.5 | 83.9 | 85.3 | 90.3 | 55.3 | 25.3 | 7.3 | 7.11 | 6.71 | 7.18 | 5.34 | 88.6 | 89 | 96.2 | 84.3 | 59.2 | 29.4 | 9.48 | 8.29 | 8.52 | 8.22 | 6.01 | 82.3 | 98.4 | 91.9 | 77.3 | 40 | 21.8 | 7.4 | 7.93 | 7.89 | 7.75 | 6.05

Source: the supplement of paper PMC11451515
